Patent US20250221998A1, “DISCOVERY OF COVALENT EGFR INHIBITOR THROUGH CYSTEINE 775” (Dana-Farber Cancer Institute, Inc., priority 2022, published 2025)

What was measured:
[1] = target: EGFR mutant L858R Ba/F3 cells (Homo sapiens, UniProt P00533, L858R, cells depend on it); experiment: Ba/F3 cell proliferation (Cell Titer Glo), EGFR L858R; assay type: cell-based, murine; conditions: 72 hours exposure, read-out: L858R BaF3 (μM), inhibitory activity against EGFR mutants
Description: (§1) The EGFR mutant L858R Ba/F3 cells have been previously described (Zhou, W., et al. Nature 462, 2009, 1070-1074). The EGFR C797S and C775S mutations were introduced via site directed mutagenesis using the Quick Change Site-Directed Mutagenesis kit into a vector containing EGFR L858R mutation (Stratagene; La Jolla, CA) according to the manufacturer's instructions. All constructs were confirmed by DNA sequencing. The constructs were then shuttled into the retroviral vector JP1540 by either using the Cre-recombination system (Agilent Technologies, Santa Clara, CA) or the In-fusion HD Cloning kit (Takara Bio USA, Inc.; Mountain view, CA). Ba/F3 cells were then infected with retrovirus per standard protocols, as described previously (Zhou, et al, Nature 2009). Stable clones were obtained by selection in puromycin (2 ug/ml). All BaF/3 mutant cells were maintained in RPMI 1640 (Cellgro; Mediatech Inc., Herndon, CA) supplemented with 10% FBS, 100 units/mL penicillin, 100 units/mL streptomycin.
(§2) Growth and inhibition of growth was assessed by the Cell Titer Glo assay (Promega, Madison, WI) and was performed according to the manufacturer's instructions. The Cell Titer Glo assay is a luminescence-based method used to determine the number of viable cells based on quantitation of the ATP present, which is directly proportional to the amount of metabolically active cells present. Ba/F3 cells of different EGFR genotypes were exposed to compounds for 72 hours and the number of cells used per experiment was determined empirically as has been previously established (Zhou, et al., Nature 2009). All experimental points were set up in triplicates in 384-well plates. […] The curves were fitted using a non-linear regression model with a sigmoidal dose response.
(§3) For inhibitory activity against EGFR mutants, the following designations are used: ≤0·25 μM=A, 0·25 μM˜0.5 μM=B, 0.5 μM˜2.5 μM=C, ≥2.5 μM=D.

[2] = target: EGFR L858R/C797S Ba/F3 cells (Homo sapiens, UniProt P00533, C797S/L858R, cells depend on it); experiment: Ba/F3 cell proliferation (Cell Titer Glo), EGFR L858R/C797S; assay type: cell-based, murine; conditions: 72 hours exposure, read-out: L858R/C797S (μM), inhibitory activity against EGFR mutants
Description: as §1, §2, §3

Sequence of EGFR mutant L858R Ba/F3 cells (P00533 whole entry L858R, the tested form may be a part): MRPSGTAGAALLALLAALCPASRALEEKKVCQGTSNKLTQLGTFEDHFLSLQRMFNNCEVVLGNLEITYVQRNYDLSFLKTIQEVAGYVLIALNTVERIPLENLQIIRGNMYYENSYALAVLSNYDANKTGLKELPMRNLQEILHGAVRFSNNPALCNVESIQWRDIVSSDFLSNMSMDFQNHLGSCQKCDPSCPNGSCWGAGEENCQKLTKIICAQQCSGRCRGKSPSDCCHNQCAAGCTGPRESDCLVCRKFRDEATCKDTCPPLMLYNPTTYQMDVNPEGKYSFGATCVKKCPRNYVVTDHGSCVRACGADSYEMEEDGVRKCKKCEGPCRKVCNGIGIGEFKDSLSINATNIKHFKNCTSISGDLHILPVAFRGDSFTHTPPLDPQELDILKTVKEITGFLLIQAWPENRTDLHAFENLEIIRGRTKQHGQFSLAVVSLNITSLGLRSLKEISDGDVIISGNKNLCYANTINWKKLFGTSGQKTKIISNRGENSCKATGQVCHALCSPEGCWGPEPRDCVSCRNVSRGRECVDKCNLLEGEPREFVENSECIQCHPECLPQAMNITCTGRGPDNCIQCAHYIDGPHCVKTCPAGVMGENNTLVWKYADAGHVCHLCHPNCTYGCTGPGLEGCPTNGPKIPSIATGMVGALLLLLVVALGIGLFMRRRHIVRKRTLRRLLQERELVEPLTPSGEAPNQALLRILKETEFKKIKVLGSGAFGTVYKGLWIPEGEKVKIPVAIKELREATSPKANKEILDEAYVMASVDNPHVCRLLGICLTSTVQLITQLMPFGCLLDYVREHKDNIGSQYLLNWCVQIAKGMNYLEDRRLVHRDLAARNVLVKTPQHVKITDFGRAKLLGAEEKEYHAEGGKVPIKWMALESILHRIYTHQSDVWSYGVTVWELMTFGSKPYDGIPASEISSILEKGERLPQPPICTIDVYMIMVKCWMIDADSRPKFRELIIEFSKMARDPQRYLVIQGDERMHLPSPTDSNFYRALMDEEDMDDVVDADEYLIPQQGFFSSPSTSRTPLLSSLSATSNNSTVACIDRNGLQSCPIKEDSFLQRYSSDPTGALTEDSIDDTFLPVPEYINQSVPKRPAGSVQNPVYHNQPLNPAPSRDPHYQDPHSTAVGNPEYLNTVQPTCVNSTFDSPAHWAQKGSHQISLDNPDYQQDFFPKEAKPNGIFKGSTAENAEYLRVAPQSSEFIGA
Sequence of EGFR L858R/C797S Ba/F3 cells (P00533 whole entry C797S/L858R): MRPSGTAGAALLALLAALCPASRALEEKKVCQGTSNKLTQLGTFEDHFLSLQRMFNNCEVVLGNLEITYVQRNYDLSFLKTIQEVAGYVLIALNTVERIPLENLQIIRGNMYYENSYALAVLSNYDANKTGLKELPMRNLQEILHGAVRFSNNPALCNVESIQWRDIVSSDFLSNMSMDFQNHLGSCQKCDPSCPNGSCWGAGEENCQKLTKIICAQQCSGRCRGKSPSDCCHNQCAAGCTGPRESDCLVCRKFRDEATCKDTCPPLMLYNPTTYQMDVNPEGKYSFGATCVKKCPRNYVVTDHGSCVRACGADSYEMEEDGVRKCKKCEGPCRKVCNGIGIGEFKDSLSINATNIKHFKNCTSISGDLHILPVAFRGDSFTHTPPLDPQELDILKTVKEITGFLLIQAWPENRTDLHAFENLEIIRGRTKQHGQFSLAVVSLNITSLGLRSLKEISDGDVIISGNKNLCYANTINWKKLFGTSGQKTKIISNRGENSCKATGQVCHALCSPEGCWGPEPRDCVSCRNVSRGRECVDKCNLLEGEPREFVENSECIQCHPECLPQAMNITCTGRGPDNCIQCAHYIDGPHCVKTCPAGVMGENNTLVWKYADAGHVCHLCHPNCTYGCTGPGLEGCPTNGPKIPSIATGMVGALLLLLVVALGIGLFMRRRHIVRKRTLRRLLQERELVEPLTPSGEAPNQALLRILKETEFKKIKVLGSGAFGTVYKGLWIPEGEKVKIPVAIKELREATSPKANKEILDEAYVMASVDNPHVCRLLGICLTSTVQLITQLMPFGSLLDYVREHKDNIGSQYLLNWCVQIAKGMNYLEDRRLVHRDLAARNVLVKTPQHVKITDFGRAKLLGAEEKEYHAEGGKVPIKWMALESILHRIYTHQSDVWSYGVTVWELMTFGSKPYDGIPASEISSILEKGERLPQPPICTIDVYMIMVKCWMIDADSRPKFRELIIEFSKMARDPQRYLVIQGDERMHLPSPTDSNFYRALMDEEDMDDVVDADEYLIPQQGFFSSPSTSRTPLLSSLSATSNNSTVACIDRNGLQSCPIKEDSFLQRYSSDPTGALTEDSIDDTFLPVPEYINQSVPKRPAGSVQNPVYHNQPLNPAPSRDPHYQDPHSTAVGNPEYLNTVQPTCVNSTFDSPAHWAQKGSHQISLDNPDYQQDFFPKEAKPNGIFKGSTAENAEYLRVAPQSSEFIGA

Compound	GI50 [1] [µM]	GI50 [2] [µM]
C=CC(=O)N1CCN(c2cc3cnc(Nc4ccc(N5CCN(C)CC5)cc4)nc3n(C)c2=O)C(c2ccccc2)C1 (stereo not drawn) [Compound 011, 8-methyl-2-[4-(4-methylpiperazin-1-yl)anilino]-6-(2-phenyl-4-prop-2-enoyl-piperazin-1-yl)pyrido[2,3-d]pyrimidin-7-one]	≥ 2.5	≥ 2.5
C=CC(=O)N1CCN(c2cc3cnc(Nc4ccc(N5CCN(C)CC5)cc4)nc3n(C)c2=O)C2(CC2)C1 [Compound 012, 8-methyl-2-[4-(4-methylpiperazin-1-yl)anilino]-6-(7-prop-2-enoyl-4,7-diazaspiro[2.5]octan-4-yl)pyrido[2,3-d]pyrimidin-7-one]	≥ 2.5	≥ 2.5
C=C(F)C(=O)N1CCN(c2cc3cnc(Nc4cnn(CCO)c4)nc3n(C)c2=O)c2ccccc21 [Compound 013, 6-[4-(2-fluoroprop-2-enoyl)-2,3-dihydroquinoxalin-1-yl]-2-[[1-(2-hydroxyethyl)pyrazol-4-yl]amino]-8-methyl-pyrido[2,3-d]pyrimidin-7-one]	≤ 0.25	0.25 to 0.5
C=C(F)C(=O)N1CCC(c2cc3cnc(Nc4cnn(CCO)c4)nc3n(C)c2=O)c2ccccc21 (stereo not drawn) [Compound 014, 6-[1-(2-fluoroprop-2-enoyl)-3,4-dihydro-2H-quinolin-4-yl]-2-[[1-(2-hydroxyethyl)pyrazol-4-yl]amino]-8-methyl-pyrido[2,3-d]pyrimidin-7-one]	≤ 0.25	≤ 0.25
C=CC(=O)NC1CCCN(c2cc3cnc(Nc4cnn(CCO)c4)nc3n(C)c2=O)C1 (stereo not drawn) [Compound 015, N-[1-[2-[[1-(2-hydroxyethyl)pyrazol-4-yl]amino]-8-methyl-7-oxo-pyrido[2,3-d]pyrimidin-6-yl]-3-piperidyl]prop-2-enamide]	≥ 2.5	≥ 2.5
C=C(F)C(=O)NC1CCCN(c2cc3cnc(Nc4cnn(CCO)c4)nc3n(C)c2=O)C1 (stereo not drawn) [Compound 016, 2-fluoro-N-[1-[2-[[1-(2-hydroxyethyl)pyrazol-4-yl]amino]-8-methyl-7-oxo-pyrido[2,3-d]pyrimidin-6-yl]-3-piperidyl]prop-2-enamide]	≥ 2.5	≥ 2.5
C=CC(=O)N1CCC(c2cc3cnc(Nc4cnn(CCO)c4)nc3n(C)c2=O)c2ccccc21 (stereo not drawn) [Compound 017, 2-[[1-(2-hydroxyethyl)pyrazol-4-yl]amino]-8-methyl-6-(1-prop-2-enoyl-3,4-dihydro-2H-quinolin-4-yl)pyrido[2,3-d]pyrimidin-7-one]	≤ 0.25	≤ 0.25
C=C(F)C(=O)NC1CCN(c2cc3cnc(Nc4cnn(CCO)c4)nc3n(C)c2=O)CC1 [Compound 018]	≥ 2.5	≥ 2.5
C=CC(=O)N1CCN(c2cc3cnc(Nc4ccc(N5CCN(C)CC5)cc4)nc3n(C)c2=O)c2cccc(C)c21 [Compound 019, 8-methyl-2-[4-(4-methylpiperazin-1-yl)anilino]-6-(5-methyl-4-prop-2-enoyl-2,3-dihydroquinoxalin-1-yl)pyrido[2,3-d]pyrimidin-7-one]	≤ 0.25	≤ 0.25
C=CC(=O)N1CCN(c2cc3cnc(Nc4cnn(CCO)c4)nc3n(C)c2=O)c2cccc(OC)c21 [Compound 020, 2-[[1-(2-hydroxyethyl)pyrazol-4-yl]amino]-6-(5-methoxy-4-prop-2-enoyl-2,3-dihydroquinoxalin-1-yl)-8-methyl-pyrido[2,3-d]pyrimidin-7-one]	≤ 0.25	0.25 to 0.5
C=CC(=O)N1CCN(c2cc3cnc(Nc4ccc(N5CCN(C)CC5)cc4)nc3n(C)c2=O)c2cccc(OC)c21 [Compound 021]	≤ 0.25	≤ 0.25
C=CC(=O)N1CC(C)N(c2cc3cnc(Nc4ccc(N5CCN(C)CC5)cc4)nc3n(C)c2=O)C(C)C1 (stereo not drawn) [Compound 022, 6-(2,6-dimethyl-4-prop-2-enoyl-piperazin-1-yl)-8-methyl-2-[4-(4-methylpiperazin-1-yl)anilino]pyrido[2,3-d]pyrimidin-7-one]	≥ 2.5	≥ 2.5
